In patent US7772383B2, “Chemical PCR: Compositions for enhancing polynucleotide amplification reactions” (The Trustees of Princeton University, priority 2002, dated 2010):

Assays:
[1] = system: bovine brain glycolipid transfer protein (GTP) cDNA (660 bp); assay: Pilot low temperature PCR of GTP with 1,5-pentanediol; type: biochemical; conditions: normalized: 1,5-pentanediol (95/72° C.) = 1
Method: (§1) Amplification reactions were carried out under the following general conditions. Those skilled in the art will appreciate, however, that to the extent that the conditions (set forth in this application) required for specific experiments described in this example were inconsistent with the following general conditions, limited exceptions to the following general conditions were made The general conditions were as follows: 10 Mm Tris-HCl (Ph 8.8), 50 Mm KCl, 1.5 Mm MgCl2, 0.01% (w/v) gelatin, 0.2 Um primers, 0.06 ng/ul template, 0.2 Mm each Dntp, 0.04 U/ul Taq polymerase. The templates used were bovine brain N-WASP cDNA (1518 bp), a 996 by segment of human myeloid leukocyte c-jun cDNA, a 511 by segment of human prostate-specific membrane antigen (PSM) cDNA, and bovine brain glycolipid transfer protein (GTP) cDNA (660 bp). cDNA synthesis was carried out using the FIRST-STRAND® RT-PCR kit from Stratagene on the respective mRNAs purchased from Clontech. All amplification reactions for gene were carried out using a single master batch of cDNA. Taq polymerase and dNTPs were obtained from Stratagene. Primers were obtained from Genosys. Primer melting temperatures (Tms) were calculated using the Genosys oligo calculator program. The sequences of the primers were as follows.
(§2) Polymerase chain reactions for the N-WASP gene were conducted on a ROBOCYCLER® Gradient 40 thermal cycler from Stratagene using 100 ul solutions in 600 ul thin-walled tubes. For expediency, amplification of c-jun, PSM and GTP was carried out in a ROBOCYCLER® Gradient 96 thermal cycler from Stratagene using 50 ul solutions in 200 ul thin-walled tubes. Prior to Taq polymerase addition, a hotstart protocol was carried out that consisted of an initial cycle of 95° C. for 5 minutes (11) to ensure complete first-strand separation, followed by a cycle of 54° C. for 5 minutes. Amplifications were run for 30 cycles. Denaturation was done for 1 minute at the minimum temperatures that yielded discernable amplification: 92° C. for N-WASP and 95° C. for c-jun, PSM and GTP. Extension was done at 72° C. for periods depending on target length: 2 minutes for N-WASP, 1.5 minutes for c-jun and GTP, and 1 minute for PSM. Annealings were carried out either at fixed concentrations of additives using temperature gradients of 38-56° C. for N-WASP and 44-58° C. for the other targets, or at varying concentrations of additives using fixed temperatures of 41° C. for N-WASP, 50° C. for c-jun and PSM, and 54° C. for GTP.
(§3) Amplification products were analyzed by agarose gel electrophoresis on 0.8% agarose gels in which 20 ul reaction products were loaded with 4 ul loading buffer. Gels were stained with ethidium bromide, visualized on a UV transilluminator (Fisher), and documented by photography. Densitometric quantitation of amplification products was carried out using IMAGE SCANNER® and IMAGE MASTER® software from Amersham Pharmacia. Background correction was done using the software's rolling disc method. […] GTP was used as the target because it has the lowest GC content of the three templates used. PCR reactions were carried out in the presence of 1.0 and 1.5M 1,5-pentanediol under the conditions of 85° C. denaturing and 53° C. extension, using a 50° C. annealing temperature. In addition, 1.5M and 2.0M 1,5-pentandediol were tested using an 80° C. denaturing temperature, with identical annealing and extension temperature. Finally, 2.0, 2.5, and 3.0M 1,5-pentanediol were tested in GTP amplification employing a 75° C. denaturation temperature.

[2] = system: human prostate-specific membrane antigen (PSM) cDNA; assay: Pilot low temperature PCR of PSM with 1,5-pentanediol; type: biochemical; conditions: for PSM Specificity: densitometric volume of target band as percent of total volume; for PSM Potency: normalized: 1,3-butanediol (95/72° C.) = 1
Method: as §1, §2, §3
PSM was also tested with 1.0 and 1.5M 1,5-pentanediol using a 85° C. denaturing/50° C. annealing/53° C. extension. The denaturation temperature was then lowered to 80° C., and 2.5M 1,5-pentanediol tested. Amplification of PSM using a 75° C. denaturing temperature was not attempted.

[3] = 85/50/53° C., 1.5 M 1,5-pentanediol
[4] = 85/50/53° C., 1.5 M 1,5-pentanediol, listed as 1,5-pentanediol
[5] = 80/50/53° C., 2.5 M 1,5-pentanediol

OCCCCCO [1,5-Pentanediol]
GTP Potency ([1]; 75/50/53° C., 2.0 M 1,5-pentanediol): 0.00
GTP Potency ([1]; 75/50/53° C., 2.0 M 1,5-pentanediol, listed as 1,5-pentanediol): unsuccessful
GTP Potency ([1]; 75/50/53° C., 2.5 M 1,5-pentanediol): 0.00
GTP Potency ([1]; 75/50/53° C., 2.5 M 1,5-pentanediol, listed as 1,5-pentanediol): unsuccessful
GTP Potency ([1]; 75/50/53° C., 3.0 M 1,5-pentanediol): 0.53
GTP Potency ([1]; 75/50/53° C., 3.0 M 1,5-pentanediol, listed as 1,5-pentanediol): succeeded in producing amplification
GTP Potency ([1]; 80/50/53° C., 1.5 M 1,5-pentanediol): 0.00
GTP Potency ([1]; 80/50/53° C., 1.5 M 1,5-pentanediol, listed as 1,5-pentandediol): failed to produce any discernable amplification
GTP Potency ([1]; 80/50/53° C., 2.0 M 1,5-pentanediol): 2.69
GTP Potency ([1]; 80/50/53° C., 2.0 M 1,5-pentanediol, listed as 1,5-pentandediol): high yield
GTP Potency ([1]; 85/50/53° C. denaturation/annealing/extension, 1.0 M 1,5-pentanediol): 2.78
GTP Potency ([1]; 85/50/53° C. denaturation/annealing/extension, 1.0 M 1,5-pentanediol, listed as 1,5-pentanediol): strong amplification
GTP Potency [1, 3]: 2.64
GTP Potency [1, 4]: strong amplification
PSM Specificity [2, 5]: 92%
PSM Potency [2, 5]: 1.40
PSM Potency ([2]; 80/50/53° C., 2.5 M 1,5-pentanediol, listed as 1,5-pentanediol): Substantial amplification
PSM Potency ([2]; 85/50/53° C., 1.0 M 1,5-pentanediol): 0.00
PSM Potency ([2]; 85/50/53° C., 1.0 M 1,5-pentanediol, listed as 1,5-pentanediol): did not amplify the target sequence
PSM Specificity [2, 3]: 86%
PSM Potency [2, 3]: 2.08
PSM Potency [2, 4]: successful
